The record followed here is ChEMBL document CHEMBL2401653, “Synthesis, structure-property relationships and pharmacokinetic evaluation of ethyl 6-aminonicotinate sulfonylureas as antagonists of the P2Y₁₂ receptor” (Eur J Med Chem, 2013).

A short description of data set [1]: Stability of the compound in MeCN assessed as compound remaining at room temperature. The format is physicochemical.
The nature of data set [2]: 1-octanol-phosphate buffer distribution coefficient, log D of the compound at pH 7.4 after 2 days by shake flask method. It counts as physicochemical.
Data set [3] is described as follows: Aqueous solubility of the compound. As to conditions: buffer. The format is physicochemical.
Data set [4] addresses T1, P2Y purinoceptor 12 (Homo sapiens, UniProt Q9H244).
Description: Displacement of [125I]-AZ11931285 from P2Y12 receptor (unknown origin) after 1 hr by scintillation counting analysis
Data set [5] deals with T1, P2Y purinoceptor 12. The source holds these as a separate data set.
Another data set is described as follows: physchem. As to conditions: HBSS buffer, pH 6.8.
Data set [6] concerns Liver microsomes. As to the kind of experiment: Metabolic stability in human liver microsomes at 1 umol/L by LC/MS analysis in absence of NADPH. It counts as ADME, Microsome. Conditions: 1 µM. A general note: Microsomes from liver hold many membrane-bound enzymes, among them those of drug oxidation.
The test system of data set [7] is Liver microsomes. Briefly: Intrinsic clearance in rat liver microsomes at 1 umol/L by LC/MS analysis in presence of NADPH. The format is ADME, Microsome. As to conditions: 1 µM.
Data set [8] has as its system Liver microsomes. Briefly: Intrinsic clearance in human liver microsomes at 1 umol/L by LC/MS analysis in presence of NADPH. The format is ADME, Microsome. As to conditions: 1 µM.
Data set [9] in a line: Apparent Permeability across apical to basolateral side in human Caco2 cells at 1 to 10 uM measured at 30 to 90 mins by LC/MS analysis. It counts as ADME, cell-based. As to conditions: Caco-2.
Data set [10] relates to Liver microsomes. As to the kind of experiment: Metabolic stability in rat liver microsomes at 1 umol/L by LC/MS analysis in absence of NADPH. The format is ADME, Microsome. As to conditions: 1 µM.
Data set [11] can be described thus: Fraction unbound in human plasma. It counts as ADME, cell-free.
A further data set concerns Plasma. As to the kind of experiment: Metabolic stability in rat plasma by HRMS analysis. The format is ADME, cell-free.
Data set [12] can be described thus: Half life in iv dosed rat. Conditions: in vivo. The format is ADME, organism-based.
The nature of data set [13]: Half life in po dosed rat. The format is ADME, organism-based. As to conditions: in vivo.
Data set [14] can be described thus: Oral bioavailability in rat. It counts as ADME, organism-based. Conditions: in vivo.
Data set [15] in a line: Clearance in iv dosed rat. It counts as ADME, organism-based. As to conditions: in vivo.
Data set [16] in a line: Stability of the compound in MeCN at room temperature after 21 days by LC/MS analysis. As to conditions: 504 h. The format is physicochemical.
Data set [17] in a line: Stability of the compound in EtOH at room temperature after 21 days by LC/MS analysis. As to conditions: 504 h. It counts as physicochemical.

The structures appear in SMILES notation. In brackets after ≈: the same amount, converted by molar mass. Where only a bound is given, the exact number is not on record here.

T1 sequence (Q9H244 whole entry): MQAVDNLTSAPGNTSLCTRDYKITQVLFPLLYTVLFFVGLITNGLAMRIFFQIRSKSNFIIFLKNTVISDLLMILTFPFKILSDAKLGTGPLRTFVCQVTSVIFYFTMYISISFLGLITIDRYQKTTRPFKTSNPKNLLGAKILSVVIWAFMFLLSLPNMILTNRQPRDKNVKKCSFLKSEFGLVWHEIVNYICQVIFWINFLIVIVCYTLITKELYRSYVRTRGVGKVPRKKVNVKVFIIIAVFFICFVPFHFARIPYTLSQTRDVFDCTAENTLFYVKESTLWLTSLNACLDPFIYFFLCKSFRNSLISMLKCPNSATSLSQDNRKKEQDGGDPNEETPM
Description for physchem: Kinetic solubility in HBSS buffer at pH 6.8 after 16 hrs by LC-UV/MS analysis

`CCOC(=O)c1cc(C#N)c(N2CCN(C(=O)Nc3ccccc3)CC2)nc1C(F)(F)F`: the Stability entry in data set [1] was “Stable”. In addition, the logD (as a rule, lipophilicity at a set pH, counting ionised and neutral species) at 48 h in data set [2] is 5. In [3], the solubility (commonly the dissolved amount per volume that the medium holds) was under 0.1 µM.
Take `CCOC(=O)c1cc(C#N)c(N2CCN(C(=O)NCCc3cccs3)CC2)nc1C(F)(F)F`: the Stability entry in data set [1] was “Stable”. In addition, the IC50 (usually the concentration that gives 50% inhibition) worked out at 1300 nM on P2Y purinoceptor 12 [4] and 510 nM against P2Y purinoceptor 12 [5]. In addition, the logD at 48 h in data set [2] came out at 5. For the same molecule, the solubility (kinetic) (as a rule, solubility judged after dilution from a stock solution rather than from solid) at 16 h in the data set “physchem” was 15 µM (≈ 7.22 µg/mL).
Consider `CCOC(=O)c1cc(C#N)c(N2CCN(C(=O)NS(=O)(=O)c3ccccc3)CC2)nc1C(F)(F)F`, for which the Stability result (in [1]; with Liver microsomes [6]; with Liver microsomes [10]) was “Stable” each time. For the same molecule, the IC50 on P2Y purinoceptor 12 [4] was determined as 170 nM; on P2Y purinoceptor 12 [5], 220 nM. The Intrinsic clearance in the data set with Liver microsomes [7] was over 104 µL/min/mg. Moreover, the Intrinsic clearance (CLint) with Liver microsomes [8] was over 70 µL/min/mg. Besides, in data set [9], the Papp A→B (commonly the apparent permeability from the apical to the basolateral side of a cell layer) at up to 10 µM was 0.6 ×10⁻⁶ cm/s.
For `CCOC(=O)c1cnc(N2CCN(C(=O)NS(=O)(=O)c3ccc(Cl)s3)CC2)c(Cl)c1`, the Stability result is recorded as “Stable” in data set [1], “Unstable” in the data set with Plasma, “Stable” in the data set on Liver microsomes [6] and “Stable” in the data set on Liver microsomes [10]. Besides, the IC50 against P2Y purinoceptor 12 [4] was 90 nM; against P2Y purinoceptor 12 [5] it was 100 nM. Further, the fraction unbound (commonly the share of the substance not bound to proteins or other matrix) in data set [11] is under 0.015. The half-life (as a rule, the time needed for the level to fall by half in the phase considered) is 0.92 h in data set [12] and 2.4 h in data set [13]. In data set [2], the logD at 48 h came to 0.9. Besides, in data set [14], the bioavailability (usually the share of a dose that reaches the circulation, judged against a reference dose that is usually intravenous) stood at 15%. In addition, the Intrinsic clearance with Liver microsomes [7] is over 104 µL/min/mg. Besides, in data set [15], the clearance (usually the rate of elimination divided by the concentration) worked out at 36 mL/min/kg. For the same molecule, the Intrinsic clearance (CLint) in the data set with Liver microsomes [8] was over 70 µL/min/mg. The Papp A→B at up to 10 µM in data set [9] was 0.11 ×10⁻⁶ cm/s.
For the molecule `CCOC(=O)c1cnc(N2CCN(C(=O)NS(=O)(=O)c3ccc(Cl)cc3)CC2)c(Cl)c1`, the Stability entry was “Stable” in data set [1], “Stable” in data set [16] and “Unstable” in [17]. Moreover, the IC50 on P2Y purinoceptor 12 [4] came to 520 nM; at P2Y purinoceptor 12 [5] it was 380 nM. This molecule displayed a logD at 48 h in data set [2] of 1.3. For the same molecule, in the data set on Liver microsomes [7], the Intrinsic clearance was over 104 µL/min/mg. Further, the Intrinsic clearance (CLint) in the data set on Liver microsomes [8] is over 70 µL/min/mg. Moreover, the Papp A→B at up to 10 µM in data set [9] is 1.2 ×10⁻⁶ cm/s.
In the case of `CCOC(=O)c1cnc(N2CCN(C(=O)NS(=O)(=O)c3ccc(F)cc3)CC2)c(Cl)c1`, in data set [1], the Stability entry was “Stable”. Also, the IC50 against P2Y purinoceptor 12 [4] worked out at 370 nM; against P2Y purinoceptor 12 [5] it was 470 nM. For the same molecule, the logD at 48 h in [2] was found to be 0.6. For the same molecule, the Intrinsic clearance with Liver microsomes [7] is over 104 µL/min/mg. Further, the Intrinsic clearance (CLint) in the data set with Liver microsomes [8] is over 70 µL/min/mg. In data set [9], the Papp A→B at up to 10 µM stood at 0.54 ×10⁻⁶ cm/s.
As to `CCOC(=O)c1cc(C#N)c(N2CC(NC(=O)NS(=O)(=O)c3ccc(Cl)s3)C2)nc1C`, the Stability entry in [1] is “Stable”. The logD at 48 h in data set [2] was determined as 0.8. Further, in the data set with Liver microsomes [7], the Intrinsic clearance was over 104 µL/min/mg. Besides, in data set [9], the Papp A→B at up to 10 µM was 0.11 ×10⁻⁶ cm/s. Also, the solubility in [3] is 83 µM (≈ 40.2 µg/mL).
For `CCOC(=O)c1cnc(N2CC(NC(=O)NS(=O)(=O)c3ccccc3)C2)c(Cl)c1`, the Stability entry in [1] is listed as “Stable”; in the data set on Plasma, “Unstable”; with Liver microsomes [6], “Stable”; in [16], “Stable”; in [17], “Stable”; in the data set with Liver microsomes [10], “Stable”. Besides, the IC50 was determined as 430 nM against P2Y purinoceptor 12 [4] and 380 nM against P2Y purinoceptor 12 [5]. In addition, the fraction unbound in data set [11] was under 0.015. Besides, the half-life in [12] was 0.17 h; in data set [13] it was 2.1 h. This molecule also gave a logD at 48 h in data set [2] of 0.8. The molecule further returned a bioavailability in [14] of 20%. The clearance in data set [15] is 29 mL/min/kg. Moreover, the Papp A→B at up to 10 µM in data set [9] worked out at 3.9 ×10⁻⁶ cm/s.
For the molecule `CCOC(=O)c1cc(C#N)c(N2CC(NC(=O)NS(=O)(=O)c3ccccc3)C2)nc1C`, the results for the Stability result (in data set [1]; in the data set with Plasma) were “Stable” and “Unstable”, respectively. Moreover, the IC50 on P2Y purinoceptor 12 [4] was 62 nM; at P2Y purinoceptor 12 [5] it was 190 nM. In addition, the fraction unbound in data set [11] was under 0.015. Also, the half-life in [12] was 1.7 h; in data set [13], 9 h. Further, the logD at 48 h in data set [2] was found to be 0.4. In data set [14], this molecule showed a bioavailability of 39%. For the same molecule, the Intrinsic clearance in the data set on Liver microsomes [7] is under 19 µL/min/mg. Also, the clearance in data set [15] was found to be 13 mL/min/kg. In the data set with Liver microsomes [8], the Intrinsic clearance (CLint) was under 13 µL/min/mg. For the same molecule, in data set [9], the Papp A→B at up to 10 µM was 0.41 ×10⁻⁶ cm/s.
As to `CCOC(=O)c1cc(C#N)c(N2CC(NC(=O)NS(=O)(=O)Cc3ccccc3)C2)nc1C`, the values for the Stability entry (in data set [1]; with Plasma) were “Stable” and “Unstable”, respectively. Besides, the values for the IC50 at P2Y purinoceptor 12 [4] and against P2Y purinoceptor 12 [5] were 79 nM and 82 nM, respectively. In data set [11], this molecule displayed a fraction unbound of under 0.015. In addition, the half-life in [12] was 0.55 h; in data set [13], 1.3 h. Further, the logD at 48 h in data set [2] came out at 1.1. In [14], this molecule registered a bioavailability of 3%. The molecule further had a clearance in [15] of 31 mL/min/kg. Further, the Papp A→B at up to 10 µM in data set [9] was found to be 1.2 ×10⁻⁶ cm/s.
